{"source": "patent US20120301510A1", "about": "“TOLEROGENIC SYNTHETIC NANOCARRIERS COUPLED TO CD1D-RESTRICTED ANTIGENS AND METHODS OF USE” (Selecta Biosciences, Inc., priority 2011, published 2012)", "system": "iNKT cells", "assay": "iNKT cell activation in mice after injection of aGC and/or rapamycin, soluble or in nanocarriers (flow cytometry of liver lymphocytes)", "assay_type": "in vivo", "conditions": "about 4 h after injection", "experimental": "Mice were designated to groups that received PBS alone, soluble aGC, NPaGC, sol aGC+solRAPA, sol aGC+NP RAPA, NPaGC+solRAPA or NPaGC+NP RAPA. Mice were injected at 9 am and at 9.30 AM received BrefeldinA i.v. to prevent release of intracellular cytokines produced. At 1 pm, mice were sacrificed and the liver was perfused with PBS and processed to obtain a single cell suspension enriched for lymphocytes. Cells were stained with cell surface markers for iNKT cells (agc-loaded CD1d tetramers) and T cells receptor (TCRb) and activation marker CD69. The cell suspension was then permeabilized and intracellular cytokine staining was performed for Th1 cytokine IFN-γ, and Th2 cytokines IL-4 and the anti-inflammatory cytokine IL-10. Cells were acquired on a FacsCanto flow cytometer and analyzed on by FlowJo.", "data": [{"smiles": "CCCCCCCCCCCCCCCCCCCCCCCCCC(=O)N[C@@H](CO[C@H]1O[C@H](CO)[C@H](O)[C@H](O)[C@H]1O)[C@H](O)[C@H](O)CCCCCCCCCCCCCC", "note": "[aGC, α-Galactosyl Ceramide (KRN7000)]", "values": [{"measurement": "iNKT cell activation as seen by cytokine production and upregulation of CD69 on their surface", "value": "activated"}]}]}
